Assay results: patent US8367727B2, “Method of using abscisic acid to treat diseases and disorders” (priority 2006, dated 2013)

Experiments:
PPAR γ = molecular target: T1, PPAR γ (Mus musculus, UniProt P37238); conditions: ABA 12.5 μM, rosiglitazone 1 μM; previously found (ref 48); cited from earlier work
T1 construct: expressed in transfected cells; host or cells: 3T3-L1 pre-adipocytes (ATCC)
T1 sequence (P37238 1-505): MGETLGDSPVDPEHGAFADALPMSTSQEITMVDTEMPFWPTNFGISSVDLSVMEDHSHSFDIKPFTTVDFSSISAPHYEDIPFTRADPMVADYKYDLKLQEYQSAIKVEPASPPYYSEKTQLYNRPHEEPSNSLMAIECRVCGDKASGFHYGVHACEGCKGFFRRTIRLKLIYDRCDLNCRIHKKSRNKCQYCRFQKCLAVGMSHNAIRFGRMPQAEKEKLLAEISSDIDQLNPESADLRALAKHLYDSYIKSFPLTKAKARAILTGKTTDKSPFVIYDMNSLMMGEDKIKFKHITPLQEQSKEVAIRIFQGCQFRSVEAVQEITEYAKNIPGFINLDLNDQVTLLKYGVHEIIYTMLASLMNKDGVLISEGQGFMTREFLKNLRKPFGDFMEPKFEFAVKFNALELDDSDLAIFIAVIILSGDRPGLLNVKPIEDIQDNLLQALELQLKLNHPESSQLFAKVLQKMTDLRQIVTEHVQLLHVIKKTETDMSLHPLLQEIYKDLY

[1] = system: immune cell populations in blood and MLN; assay: Immunophenotyping of blood and mesenteric lymph nodes by flow cytometry after DSS challenge; format: in vivo, mice
Procedure: MLNs were excised and crushed with frosted slides, washed with PBS, and resuspended in PBS and enumerated with a Coulter Counter (Beckman Coulter, Fullerton, Calif.). MLN-derived cells (2×10^5 cells/well) or whole blood (10 μL/well) were seeded onto 96-well plates, centrifuged at 4° C. at 3000 rpm for 4 minutes, and washed with PBS containing 5% serum and 0.09% sodium azide (FACS buffer). […] For lymphocyte assessment, cells were incubated with anti-CD4-Alexa Fluor 700 (2 μg/mL; BD Pharmingen), anti-CD8-PerCp-Cy5.5 (2 μg/mL, eBioscience), CD3 PE-Cy5 (2 μg/mL; BD Pharmingen), anti-CD25-FITC (BD), anti-CTLA-4 FITC (BD), or anti-FoxP3-PE (2 μg/mL, eBioscience) as previously shown (77). Flow results were computed with a BD LSR II flow cytometer and data analyses was performed with FACS Diva software (BD).

db/db mice = assay: WAT and skeletal muscle (SM) inflammation in db/db mice (Example 8); format: in vivo
Procedure: WAT Digestion. […] The floating portion (adipocyte-rich portion), was then removed and digested for an addition 60 minutes at 37° C.
Quantitative real-time reverse transcriptase PCR.
Complementary DNA (cDNA) concentrations for genes of interest were examined by real-time quantitative PCR using an iCycler IQ System and the iQ SYBR green supermix (BioRad). A standard curve was generated for each gene using 10-fold dilutions of purified amplicons starting at 5 pg of cDNA and used later to calculate the starting amount of target cDNA in the unknowns.

CTLA-4 on CD4+ T cells = assay: CTLA-4 assessment in cultured CD3/CD28-stimulated splenocytes; format: cell-based, mice; conditions: ABA 10 μM, 20 hr
Procedure: Splenocytes from wild-type mice (n=2) were isolated under sterile conditions and seeded into 96-well plates as described above. Cells were stimulated with anti-CD3 (5 μg/mL; BD Pharmingen) and anti-CD28 (1 μg/mL; BD Pharmingen) to induce proliferation and then treated with DMSO or ABA (10 μM, Sigma). Cells were then placed in a 37° C. incubator with 5% CO2 for 20 hours and immunophenotyped with anti-CD4 Alexa Fluor 700 (BD Pharmingen), anti-CD3-PE-Cy5 (BD Pharmingen), anti-CD8-PerCp-Cy5.5 (eBioscience), and'anti-CD152 (CTLA-4)-biotin (BD). Streptavidin PE-Texas Red (1 μg/mL; BD Pharmingen) was used as a secondary antibody. Flow results were computed with a BD LSR II flow cytometer and data analyses was performed with FACS Diva software (BD).

[2] = system: white adipose tissue (WAT) of db/db mice; assay: WAT histology: adipocyte area and macrophage infiltration; format: in vivo
From the text: Hepatic and adipose sections were fixed in 10% buffered neutral formalin, embedded in paraffin, cut at thicknesses of 7 microns and later stained with hematoxylin and eosin (H&E) for histological examination of adipocyte hypertrophy and inflammatory lesions. Hepatic sections were scored based on the amount of lipodystrophy observed according to the Nonalcoholic steatohepatitis (NASH) scoring method, with a score of 0 signifying <5% of the cells contain lipid droplets and a score of 4 signifying that >75% of the cells contained lipids and a magnification of 400× (23). The final score was the average of five randomly chosen fields. The area of adipocytes from WAT was analyzed using Sigma Pro® 5.0 software at a magnification of 100×, and macrophage infiltration was determined by averaging the number of macrophages observed in five different fields at 400×.

influenza virus antigens = assay: Antigen-specific T cell response after immunization with inactivated influenza virus vaccine; format: cell-based; conditions: ABA-fed mice (controls 5)
[3] = system: mesenteric lymph node-derived lymphocytes; assay: Proliferation and PGE2 production, mesenteric lymph node-derived lymphocytes; format: cell-based, mice

SMILES: CC1=CC(=O)CC(C)(C)C1(O)/C=C/C(C)=C\C(=O)O (racemic) [ABA, abscisic acid]
- PPAR γ transactivation, comparison of the two agonists (PPAR γ): equally effective
- CTLA-4 expression on CD4+ T cells in blood ([1]; ABA-fed wild-type mice): significantly increased
- percent of CD4+CD25+FoxP3+ regulatory T cells ([1]; MLN): significantly increased
- effect on F4/80+CD11b+ monocytes ([1]; PPAR γ-deficient (CD4cre) mice): absent
- increase of CTLA-4 expression on CD4+ T cells in blood ([1]; lack of PPAR γ (CD4cre mice)): abrogated
- F4/80+CD11b+ monocytes ([1]; wt mice, blood): significantly decreased
- MCP-1 expression in SM (db/db mice; ABA-fed mice): significantly downregulated
- MCP-1 expression in stromal vascular cells (SVCs) (db/db mice; ABA-fed mice): significantly downregulated
- TNF-α expression in SM, control-fed db/db versus ABA-fed db/db mice (db/db mice; P=0.03): approximately 2 fold
- IMAT adipocyte hypertrophy (db/db mice; db/db mice, 100 mg ABA/kg diet, 36 days): significantly attenuated
- CCR2 and CCR5 macrophage infiltration into WAT (db/db mice; dietary ABA-supplementation, 36 days): significantly decreased
- CTLA-4 median fluorescence intensity (MFI) on CD4+ cells (CTLA-4 on CD4+ T cells): increased CTLA-4 MFI
- percent of CD4+ T cells expressing CTLA-4 (CTLA-4 on CD4+ T cells): significantly increased
- adipocyte size in WAT ([2]; ABA-fed vs control-fed db/db mice): significantly more small adipocytes and fewer hypertrophic adipocytes
- macrophages infiltrating WAT ([2]; ABA-fed vs control-fed, P<0.05): significantly lower number of macrophages
- production of interleukin-2 (IL-2) (influenza virus antigens): 31.67 picograms IL-2/ml of cell supernatant
- prostaglandin E2 (PGE2) production ([3]; ABA feeding): decreased
- augmentation of proliferation of mesenteric lymph node-derived lymphocytes ([3]; following ABA feeding): 10 fold
